{
  "source": "patent US6046219A",
  "about": "“Method for the treatment of conditions mediated by collagen formation together with cell proliferation by application of inhibitors of protein hydroxylation” (Cornell Research Foundation, Inc., priority 1997, dated 2000)",
  "assay_type_in_all_cases": "cell-based",
  "key": {"[1]": {"system": "deoxyhypusyl hydroxylase activity in human smooth muscle cells", "experiment": "Cellular deoxyhypusyl hydroxylase in human smooth muscle cells", "conditions": "FIG. 3b", "procedure": "In FIG. 3a, the effect on the human enzyme was determined by measuring in proliferating cultured B-lymphocytes the covalent incorporation of tritiated spermidine-derived label into cellular protein, after standard hydrolysis, chromatographic separation of amino acids, and expression of the results relative to uninhibited controls. In FIG. 3b, a standard chromatographic elution profile is shown as obtained from cultured human smooth muscle cells (\"SMC\"), grown out of coronary atherosclerotic lesions and metabolically labeled in the absence and presence of L-mimosine. […]\nThe cellular conversion of the precursor deoxyhypusine to the hydroxylated hypusine in cells was examined, after preincubation with the inhibitor for 60 minutes, by labeling the human cells with ^3 H-spermidine (5 μCi/ml) in 25 cm^2 flasks (1×10^6 cells/flask) for 24 hours prior to cell lysis, precipitation with 10% TCA containing 1 mM each of putrescine, spermidine, and spermine, and hydrolysis in 6 N HCl at 110° C. for 16 hours. The hydrolysate was analyzed for labeled amino acids on an amino acid analyzer by published methods (Park et al., J. Biol. Chem., 257:7217-7222 (1982), which is hereby incorporated by reference). The retention of purified hypusine and deoxyhypusine was determined from standards."}, "type III procollagen": {"system": "type III procollagen", "experiment": "Type III procollagen secretion by SMC", "conditions": "human SMC, FIG. 6a", "procedure": "Type III collagen biosynthesis (FIG. 6a) was assessed by a commercial radioimmunoassay using a monoclonal antibody to the N-terminal propeptide of type III procollagen. Plasminogen activator inhibitor-1 (\"PAI-1\") activity was measured by a standard enzymatic method. Type I collagen biosynthesis (FIG. 6b) was assessed by routine Western blot using a monoclonal antibody to the C-terminal propeptide of type I procollagen.\nSMC or MRC-5 cells (3-5×10^6 cells/35 mm well), incubated in serum-free DMEM containing 50 μg/ml sodium ascorbate and 20 μg/ml β-aminopropionitrile, are exposed for 24 hours to increasing concentrations of hydroxypyridones. After centrifugation, to clear any cellular debris, these supernatants are used to determine the levels of type I and III procollagens, using commercially available radioimmunoassays (Incstar and Behringwerke, respectively).\nHuman SMC (3-5×10^5 cells/35 mm well), grown to confluency and incubated in serum-free DMEM containing 50 μg/ml sodium ascorbate and 20 μg/ml β-aminopropionitrile, were exposed for 24 hours to increasing concentrations of test compounds. […] Type I procollagen biosynthesis also was quantified by Western analysis in the following manner. […] Immunoblots were scanned with a UMAX UC630 flatbed scanner and quantified densitometrically using standard software."}, "[2]": {"system": "human SMC from fibroproliferative vascular lesions", "experiment": "Cell proliferation: DNA synthesis (3H-thymidine) in SMC", "conditions": "for reversibility of cytostatic effect upon withdrawal: corrected for cell number", "procedure": "The effect of the structural hydroxypyridone analog kojic acid is shown for comparison. Serum-stimulated DNA synthesis in SMC was determined by a 4-hour pulse of ^3 H-thymidine given 20 hours after treatment with L-mimosine and kojic acid (filled symbols). Identically treated, but unlabeled cells cultured in parallel, at that time point were washed and returned to fresh culture media without inhibitor for an additional 20 hours prior to otherwise identical labeling with ^3 H-thymidine (open symbols). Data is expressed as ^3 H-thymidine incorporated per cell to compensate for the reduced cell number in the wake of inhibitor treatment.\nInhibition of DNA synthesis was examined by semiautomated methods. SMC were plated at 1×10^4 cells/well in 96-well microtiter plates at least 24 hours prior to the assay. Agents were introduced into normal serum-containing growth media for 20 hours before the cells were pulsed with ^3 H-thymidine (1 μCi/ml) for 4 hours. Cells were collected with a cell harvester and the DNA-incorporated label determined by scintillation counting (Betaplate; Wallac, Inc., Gaithersburg, Md.) (n=6 per point)."}},
  "note": "Entries after “also recorded” stand apart in the source; their conditions may differ.",
  "data": [
    {"compound": "N[C@@H](Cn1ccc(=O)c(O)c1)C(=O)O", "note": "[L-Mimosine]", "values": [
      {"measurement": "inhibition of deoxyhypusyl hydroxylase activity", "setting": "[1]", "value": "inhibit deoxyhypusyl hydroxylase activity; also recorded: label is shifted to the unhydroxylated precursor of Hps"},
      {"measurement": "inhibition of secretion of procollagen type III", "setting": "type III procollagen", "value": "potent inhibitor; also recorded: selectively suppressive effect"},
      {"measurement": "non-specific or toxic effects", "setting": "[2]; FIGS. 6, 7", "value": "did not result from non-specific or toxic effects"},
      {"measurement": "reversibility of cytostatic effect upon withdrawal", "setting": "[2]; FIG. 7, listed as L-mimosine", "value": "non-toxic reversibility"},
      {"measurement": "reversibility of cytostatic effect upon withdrawal", "setting": "[2]; FIG. 7, listed as mimosine", "value": "fully reversible"},
      {"measurement": "rebound effect on DNA synthesis", "setting": "[2]; following inhibitor removal and additional 24-hour recovery", "value": "marked rebound effect"},
      {"measurement": "inhibition of DNA synthesis", "setting": "[2]; lesion-derived SMC, initial 24-hour treatment, FIG. 7", "value": "DNA synthesis was inhibited"},
      {"measurement": "reversibility of suppressive effects (collagen secretion, onset of DNA synthesis)", "setting": "[2]; upon removal of compound", "value": "reversible"}
    ]}
  ]
}
